Experimental data taken from patent US20210246109A1, “POTENT AND SELECTIVE INHIBITORS OF CYTOCHROME P450” (University of Kentucky Research Foundation, priority 2020, published 2021).
pIC50: −log10 of the molar value. Several values for one entry are separate records, joined by “and”; a condition that tells them apart may be missing. Identical values can stand only once. Like-named read-outs stand apart in the source and are kept apart here.

Experiments:
CYP1A1 = molecular target: T1, CYP1A1 (Homo sapiens, UniProt P04798); assay: EROD assay in CYP1A1 counter-screen cell line; format: cell-based
T1 construct: expressed in transfected cells
T1 sequence (P04798 1-512): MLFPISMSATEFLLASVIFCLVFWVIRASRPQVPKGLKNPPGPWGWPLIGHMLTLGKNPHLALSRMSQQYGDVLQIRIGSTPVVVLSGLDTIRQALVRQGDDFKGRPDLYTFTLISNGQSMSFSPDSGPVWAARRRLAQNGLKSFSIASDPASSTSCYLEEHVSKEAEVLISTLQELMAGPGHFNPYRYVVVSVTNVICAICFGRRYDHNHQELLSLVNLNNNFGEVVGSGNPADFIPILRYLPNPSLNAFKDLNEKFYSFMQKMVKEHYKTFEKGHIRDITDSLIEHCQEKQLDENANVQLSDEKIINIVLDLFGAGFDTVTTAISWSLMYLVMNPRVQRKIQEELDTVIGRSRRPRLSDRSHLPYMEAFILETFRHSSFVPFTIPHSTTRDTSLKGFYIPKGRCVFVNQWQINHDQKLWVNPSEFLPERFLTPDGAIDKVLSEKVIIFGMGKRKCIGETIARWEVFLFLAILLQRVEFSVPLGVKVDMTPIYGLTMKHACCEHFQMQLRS
Protocol: (§1) The activity of the inhibitors was assessed in a novel cell based assay generated for the purpose of this project. Enzymatic turnover of CYP1B1 was measured using the ethoxy-resorufin-O-deethylase (EROD) assay with the fluorescent substrate, resorufin ethyl ether. Cell lines were generated where the gene for CYP1B1 alone or CYP1B1 and cytochrome P450 reductase (CPR) were both under the control of an inducible promoter. A cell line was generated for counter screening where the gene for CYP1A1 was used. CYP1A1 is the closest family member to CYP1B1.

[1] = Cytotoxicity, resazurin, 72 hours after compound addition; format: cell-based; conditions: human, HEK cells; Table 1; 72 hours, resazurin; read-out: Cytotoxicity IC50
Protocol: Cytotoxicity was assessed at 72 hours after compound addition using resazurin. The compounds that function as selective 1B1 inhibitors had no effect on cell health. This is an essential feature for any chemopreventative agent or molecules intended to block the detrimental action of an enzyme.

CYP1B1 [2] = molecular target: T2, CYP1B1 (Homo sapiens, UniProt Q16678); assay: EROD assay in inducible CYP1B1 cell line; format: cell-based
T2 construct: expressed in transfected cells
T2 sequence (Q16678 1-543): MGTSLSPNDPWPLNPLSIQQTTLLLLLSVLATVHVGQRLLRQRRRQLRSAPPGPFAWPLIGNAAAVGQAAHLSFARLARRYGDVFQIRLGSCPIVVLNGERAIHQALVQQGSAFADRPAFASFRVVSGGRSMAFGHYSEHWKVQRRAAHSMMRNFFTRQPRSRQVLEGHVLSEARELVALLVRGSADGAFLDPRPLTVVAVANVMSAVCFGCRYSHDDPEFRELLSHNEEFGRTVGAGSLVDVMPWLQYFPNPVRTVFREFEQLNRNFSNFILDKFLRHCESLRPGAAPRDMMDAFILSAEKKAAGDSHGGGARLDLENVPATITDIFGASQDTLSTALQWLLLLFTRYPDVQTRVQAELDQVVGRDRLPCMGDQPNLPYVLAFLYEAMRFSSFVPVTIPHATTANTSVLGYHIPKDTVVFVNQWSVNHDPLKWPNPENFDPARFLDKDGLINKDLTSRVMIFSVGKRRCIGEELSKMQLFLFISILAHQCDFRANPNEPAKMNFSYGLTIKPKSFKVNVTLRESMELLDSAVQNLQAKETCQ
Protocol: as §1

CYP1B1 [3] = molecular target: T2, CYP1B1; assay: Wash out experiment (FIG. 2B); format: cell-based
Excerpt: (§2) FIG. 2A includes a dose response of 547 in EROD assay in CYP1B1 cell line (blue) vs. 1A1 cell line (black). […] 510 is a control compound that lacks a coordinating group. […] All other conditions are following CYP1B1 induction with benzo[a]pyrene. Spheroid shown in inset.

CYP1B1 [4] = molecular target: T2, CYP1B1; assay: CYP1B1 degradation on binding (FIG. 2C); format: cell-based; conditions: 0.1 μM
Excerpt: as §2

[5] = molecular target: T3, pooled human liver microsomes (pHLMs) (Homo sapiens, UniProt P05177); assay: EROD counterscreen in pooled human liver microsomes; format: biochemical; conditions: human, microsomes
T3 sequence (P05177 2-516): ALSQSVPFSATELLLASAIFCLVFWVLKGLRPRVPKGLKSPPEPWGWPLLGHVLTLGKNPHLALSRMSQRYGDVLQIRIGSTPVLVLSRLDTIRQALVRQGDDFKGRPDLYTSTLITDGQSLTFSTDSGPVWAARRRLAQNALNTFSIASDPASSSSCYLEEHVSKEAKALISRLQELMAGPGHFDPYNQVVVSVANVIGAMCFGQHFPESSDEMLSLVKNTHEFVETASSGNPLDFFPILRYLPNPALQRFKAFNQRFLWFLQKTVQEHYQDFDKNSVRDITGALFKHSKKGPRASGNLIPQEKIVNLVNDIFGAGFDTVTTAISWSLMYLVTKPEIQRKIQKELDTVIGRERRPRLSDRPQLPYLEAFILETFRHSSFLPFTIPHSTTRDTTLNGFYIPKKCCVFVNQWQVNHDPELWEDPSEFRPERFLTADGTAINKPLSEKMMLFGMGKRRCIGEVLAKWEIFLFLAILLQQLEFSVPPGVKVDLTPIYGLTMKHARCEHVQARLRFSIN
Excerpt: Human liver microsomes were used as a counterscreen to experimentally determine the magnitude of inhibitor selectivity.

MCF7 tumor spheroids = format: cell-based; conditions: 547 0.5 μM with cisplatin 100 μM; CYP1B1 induced with benzo[a]pyrene
Excerpt: 510 is a control compound that lacks a coordinating group. […] All other conditions are following CYP1B1 induction with benzo[a]pyrene. Spheroid shown in inset.

Which results are given for `N#CCOc1ccc(-c2nc(OCC#N)c3ccccc3n2)cc1` [GL547]?
activity of CYP1A1 over 24 h (CYP1A1; 1 μM, 24 h, FIG. 2D): no loss in activity; pIC50 (CYP1A1; Table 1, read-out: CYP1A1 IC50): 5.85; pIC50 (CYP1A1; Table 3, read-out: IC50 1A1): 5.43 and 5.57; IC50 at 72 h [1]: > 10000 nM; pIC50 (CYP1B1 [2]; Table 1, read-out: CYP1B1 IC50): 10.62; pIC50 (CYP1B1 [2]; Table 3, read-out: IC50 1B1): > 9.60; time CYP activity is suppressed after wash out (CYP1B1 [3]): > 10 h; effect of binding on CYP1B1 protein (CYP1B1 [4]): causes degradation of CYP1B1; pIC50 ([5]; Table 1, read-out: hLM IC50): 5.40; pIC50 ([5]; Table 3, read-out: IC50 pHLM): 5.52; increase in cell death (MCF7 tumor spheroids): 75%
